Source: patent US8013169B2, “Naphthylmethylimidizoles as therapeutic agents” (Allergan, Inc, priority 2007, dated 2011)
pEC50: −log10 of the molar value.

Key:
Alpha 1A = molecular target: T1, Alpha 1A (Homo sapiens, UniProt P35348); assay: RSAT assay, Alpha 1A; format: cell-based; conditions: for Alpha 1A (IA) intrinsic activity: ratio of maximal effect of drug to maximal effect of standard full agonist
T1 construct: expressed in transfected cells; host or cells: NIH-3T3
T1 sequence (P35348 1-466): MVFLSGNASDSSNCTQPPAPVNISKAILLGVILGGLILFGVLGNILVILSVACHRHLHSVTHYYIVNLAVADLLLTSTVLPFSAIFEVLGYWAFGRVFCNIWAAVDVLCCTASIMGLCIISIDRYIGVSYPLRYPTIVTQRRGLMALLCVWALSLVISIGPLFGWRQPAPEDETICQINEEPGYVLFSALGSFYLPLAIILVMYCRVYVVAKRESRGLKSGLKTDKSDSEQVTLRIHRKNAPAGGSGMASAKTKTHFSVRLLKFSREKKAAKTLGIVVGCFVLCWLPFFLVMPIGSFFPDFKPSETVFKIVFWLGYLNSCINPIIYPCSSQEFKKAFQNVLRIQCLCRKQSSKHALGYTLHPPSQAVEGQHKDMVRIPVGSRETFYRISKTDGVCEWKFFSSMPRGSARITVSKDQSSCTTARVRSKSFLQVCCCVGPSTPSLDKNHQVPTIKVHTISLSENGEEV
Protocol: (§1) The RSAT assay measures a receptor-mediated loss of contact inhibition that results in selective proliferation of receptor-containing cells in a mixed population of confluent cells. The increase in cell number is assessed with an appropriate transfected marker gene such as […]-galactosidase, the activity of which can be easily measured in a 96-well format. Receptors that activate the G protein, Gq, elicit this response. Alpha2 receptors, which normally couple to Gi, activate the RSAT response when coexpressed with a hybrid Gq protein that has a Gi receptor recognition domain, called Gq/i5.
NIH-3T3 cells are plated at a density of 2×10^6 cells in 15 cm dishes and maintained in Dulbecco's modified Eagle's medium supplemented with 10% calf serum. One day later, cells are cotransfected by calcium phosphate precipitation with mammalian expression plasmids encoding p-SV-β-galactosidase (5-10 μg), receptor (1-2 μg) and G protein (1-2 μg). 40 μg salmon sperm DNA may also be included in the transfection mixture. Fresh media is added on the following day and 1-2 days later, cells are harvested and frozen in 50 assay aliquots. Cells are thawed and 100 μl added to 100 μl aliquots of various concentrations of drugs in triplicate in 96-well dishes. Incubations continue 72-96 hr at 37° C. After washing with phosphate-buffered saline, β-galactosidase enzyme activity is determined by adding 200 μl of the chromogenic substrate (consisting of 3.5 mM o-nitrophenyl-β-D-galactopyranoside and 0.5% nonidet P-40 in phosphate buffered saline), incubating overnight at 30° C. and measuring optical density at 420 nm. The absorbance is a measure of enzyme activity, which depends on cell number and reflects a receptor-mediated cell proliferation. The efficacy or intrinsic activity is calculated as a ratio of the maximal effect of the drug to the maximal effect of a standard full agonist for each receptor subtype. Brimonidine, also called UK14304, the chemical structure of which is shown below, is used as the standard agonist for the alpha2A, alpha2B and alpha2C receptors. The EC50 is the concentration at which the drug effect is half of its maximal effect.
EC50 values are nanomolar. NA stands for “not active” at concentrations less than 10 micromolar. IA stands for “intrinsic activity.”

Alpha 2B = molecular target: T2, Alpha 2B (Homo sapiens, UniProt P18089); assay: RSAT assay, Alpha 2B; format: cell-based
T2 construct: expressed in transfected cells; host or cells: NIH-3T3
T2 sequence (P18089 1-450): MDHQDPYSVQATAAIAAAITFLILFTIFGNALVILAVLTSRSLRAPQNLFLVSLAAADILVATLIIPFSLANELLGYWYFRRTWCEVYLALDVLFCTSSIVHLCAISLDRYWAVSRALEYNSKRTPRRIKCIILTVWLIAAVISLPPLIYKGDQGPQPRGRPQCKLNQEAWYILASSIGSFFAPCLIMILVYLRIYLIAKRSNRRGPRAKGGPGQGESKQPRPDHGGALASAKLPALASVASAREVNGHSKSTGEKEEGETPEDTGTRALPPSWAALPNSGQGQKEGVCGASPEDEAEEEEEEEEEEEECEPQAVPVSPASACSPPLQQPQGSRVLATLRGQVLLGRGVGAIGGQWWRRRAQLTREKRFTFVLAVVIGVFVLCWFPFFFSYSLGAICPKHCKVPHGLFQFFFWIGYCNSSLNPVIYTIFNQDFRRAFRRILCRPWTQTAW
Protocol: as §1
NIH-3T3 cells are plated at a density of 2×10^6 cells in 15 cm dishes and maintained in Dulbecco's modified Eagle's medium supplemented with 10% calf serum. […] After washing with phosphate-buffered saline, β-galactosidase enzyme activity is determined by adding 200 μl of the chromogenic substrate (consisting of 3.5 mM o-nitrophenyl-β-D-galactopyranoside and 0.5% nonidet P-40 in phosphate buffered saline), incubating overnight at 30° C. and measuring optical density at 420 nm. The absorbance is a measure of enzyme activity, which depends on cell number and reflects a receptor-mediated cell proliferation. The efficacy or intrinsic activity is calculated as a ratio of the maximal effect of the drug to the maximal effect of a standard full agonist for each receptor subtype. […]

Structure (SMILES)	pEC50 (Alpha 1A)	Alpha 1A (IA) intrinsic activity (Alpha 1A)	pEC50 (Alpha 2B; RSAT, NIH-3T3 cells coexpressing Gq/i5, NA = not active at concentrations less than 10 micromolar)	Alpha 2B (IA) intrinsic activity (Alpha 2B; ratio of maximal effect of drug to maximal effect of standard full agonist brimonidine)
Cc1[nH]cnc1Cc1ccc(N)c2ccccc12 [Compound 8, 4-((5-methyl-1H-imidazol-4-yl)methyl)naphthalen-1-amine]	7.26	1.01	6.84	0.46
CNc1ccc(Cc2nc[nH]c2C)c2ccccc12 [Compound 7, N-methyl-4-((5-methyl-1H-imidazol-4-yl)methyl)naphthalen-1-amine]	7.89	1.2	–	–
